Literature values in patent US8545896B2, “Compositions, kits and methods for nutrition supplementation” (Chemo S. A. France, priority 2011, dated 2013).

Details: intake of about 1000 IU per day, all adults

Question: For `C=C1CC[C@H](O)C/C1=C/C=C1\CCC[C@]2(C)[C@@H]([C@H](C)CCCC(C)C)CC[C@@H]12` [vitamin D3, cholecalciferol], which “share of the population brought up to the 30 ng/ml serum range for 25-hydroxyvitamin D” value is on record?
Answer: at least 50%
